In US20220388972A1, “CHROMAN-4-ONE DERIVATIVES FOR THE TREATMENT AND PROPHYLAXIS OF HEPATITIS B VIRUS INFECTION” (Hoffmann-La Roche Inc., priority 2018, published 2022):

What was measured:
[1] = tested on: HBV (extracellular HBsAg) in primary human hepatocytes; assay: Cryopreserved primary human hepatocytes (PHH) HBV infection assay, HBsAg; format: cell-based; settings: Hepatitis B virus, Hepatocyte, 216 h, HBV-infected cryopreserved PHH, 9 days post-compound treatment, CLIA
Procedure: This assay is used to confirm the anti-HBV effect of the compounds in HBV PHH infection assay. Cryopreserved PHH (BioreclamationIVT, Lot YJM) was thawed at 37° C. and gently transferred into pre-warmed InVitroGRO HT medium (BioreclamationIVT, Cat. S03317).
The mixture was centrifuged at 70 relative centrifugal force (RCF) for 3 minutes at RT, and the supernatant was discarded. Pre-warmed InVitroGRO CP medium (BioreclamationIVT, Cat #S03316) was added to the cell pellet to gently re-suspend cells. The cells were seeded at the density of 5.8×10^4 cells per well to collagen I coated 96-well plate (Gibco, Cat. A1142803) with the InVitroGRO CP medium. All plates were incubated at 37° C. with 5% CO2 and 85% humidity.
At 20 hours after plating, the medium was changed to PHH culture medium (Dulbecco's Modified Eagle Medium (DMEM)/F12 (1:1) (Gibco, Cat. 11320-033), 10% fetal bovine serum (Gibco Cat. 10099141), 100 U/mL penicillin, 100 μg/mL streptomycin (Gibco, Cat. 151401-122), 5 ng/mL human epidermal growth factor (Invitrogen Cat. PHG0311L), 20 ng/mL dexamethasone (Sigma, Cat. D4902) and 250 ng/mL human recombinant insulin (Gibco, Cat. 12585-014)). And the cells were incubated at 37° C. with 5% CO2 and 85% humidity for 4 hours. The medium was then changed to pre-warmed PHH culture medium containing 4% polyethylene glycol (PEG) MW8000 (Sigma, Cat. P1458-50 ML) and 1% DMSO (Sigma, Cat. D2650). 5.8×10^6 genomic equivalents of HBV were added into the medium.
At 24 hours' post-infection, the cells were gently washed with PBS and refreshed with PHH culture medium supplemented with 1% DMSO, and 0.25 mg/mL Matrix gel (Corning, Cat. 356237) at 200 μL per well. All plates were immediately placed in at 37° C. CO2 incubator.
24 hours later, serial dilutions of compounds made with DMSO were further diluted with the same culture medium (PHH culture medium supplemented with 1% DMSO and 0.25 mg/mL Matrix gel as described above) before they were added to the cells to reach desired final compound concentrations and 1% DMSO concentration. The medium containing the compounds were refreshed every three days.
At 9 days' post-compound treatment, extracellular HBsAg level were measured with Chemiluminescence Immuno Assay (CLIA) kit (Autobio, HBsAg Quantitative CLIA).
HBsAg IC50 and HBV DNA IC50 values were derived from the dose-response curve using 4 parameters logistic curve fit method. The compounds of formula (I) have HBsAg IC50<20 μM, particularly <1 μM; and HBV DNA IC50<50 μM.

[2] = tested on: HBV cccDNA (HBeAg as surrogate marker) in HepDES19 cells; assay: Engineered HepDES19 primary screen assay (HBeAg as surrogate marker for cccDNA); format: cell-based; settings: Hepatitis B virus, HepDES19, 120 h
Text: The assay was employed to screen for cccDNA inhibitors. HepDES19 is a cccDNA-producing cell line. In this cell line, HBeAg in the cell culture supernatant as surrogate marker, as HBeAg production depends on cccDNA level and activity. HepDES19 is an engineered cell line which contains a 1.1 unit length HBV genome, and pgRNA transcription from the transgene is controlled by Tetracycline (Tet). In the absence of Tet, pgRNA transcription will be induced, but HBV e antigen (HBeAg) could not be produced from this pgRNA due to very short leader sequence before the HBeAg start codon and the start codon is disrupted. Only after cccDNA is formed, the missing leader sequence and start codon mutation would be restored from the 3′-terminal redundancy of pgRNA, and then HBeAg could be synthesized. Therefore, HBeAg could be used as a surrogate marker for cccDNA (Zhou, T. et al., Antiviral Res. (2006), 72 (2), 116-124; Guo, H. et al., J. Virol. (2007), 81 (22), 12472-12484).
HepDES19 cells were seeded at 2×10^6 cells per T150 flask and cultured with the culture medium (Dulbecco's Modified Eagle Medium: Nutrient Mixture F-12 [DMEM-F12, Gibco Cat. 11320-82], 10% Fetal Bovine Serum [FBS, Clontech Cat. 631101], 0.1 mM Non-Essential Amino Acids Solution [NEAA, Gibco Cat. 11140-050], 50 μg/mL Penicillin-Streptomycin [PS, Invitrogen Cat. 15140-163], 500 μg/mL Geneticin [G418, Invitrogen Cat. 10131-027]) containing 3 μg/mL Tet (Sigma, Cat. 87128) for 5 days. Cells were then seeded at 4×10^6 cells per T150 in the same culture medium as described above in the absence of Tet for 8 days. Cells were then harvested and frozen at density of 2×10^6 cells per mL. For compound testing, the frozen cells were thawed and seeded into 96-well plates at a density of 6×10^4 cells per well. At 24 hours after seeding, half log serial dilutions of compounds made with Dimethyl sulfoxide (DMSO, Sigma, Cat. D2650) were further diluted with the same culture medium as described above before they were added to the cells to reach desired final compound concentrations and 1% DMSO concentration. Plates were then incubated at 37° C. for another 5 days before measurement of HBeAg level and cell viability. Intracellular HBeAg level were measured with enzyme-linked immunosorbent assay (ELISA) kit (Shanghai Kehua Diagnostic Medical Products Co., Ltd). Cell viability was assessed using Cell Counting Kit-8 (DonJindo, Cat. CK04-20). IC50 values were derived from the dose-response curve using 4 parameters logistic curve fit method.
The compounds of the present invention were tested for their capacity to inhibit extracellular HBeAg level as described herein.

Row | SMILES | IC50 [1] | IC50 [2]
1 | COc1cc(C2CC(=O)c3cccc(Cl)c3O2)c(OCCC(=O)O)cc1C(F)(F)F (stereo not drawn) [Example 11, 3-[2-(8-chloro-4-oxo-chroman-2-yl)-4-methoxy-5-(trifluoromethyl)phenoxy]propanoic Acid] | 8.34 µM | 5.14 µM
2 | O=C(O)CCOc1cc(C(F)(F)F)ccc1C1CC(=O)c2cccc(Cl)c2O1 (stereo not drawn) [Example 1, 3-[2-(8-chloro-4-oxo-chroman-2-yl)-5-(trifluoromethyl)phenoxy]propanoic Acid] | 5.31 µM | 0.73 µM
3 | O=C(O)CCOc1cc(C(F)(F)F)ccc1C1CC(=O)c2ccc(F)c(Cl)c2O1 (stereo not drawn) [Example 2, 3-[2-(8-chloro-7-fluoro-4-oxo-chroman-2-yl)-5-(trifluoromethyl)phenoxy]propanoic Acid] | 4.41 µM | 1.97 µM
4 | O=C(O)CCOc1cc(OC(F)(F)F)ccc1C1CC(=O)c2cccc(Cl)c2O1 (stereo not drawn) [Example 13, 3-[2-(8-chloro-4-oxo-chroman-2-yl)-5-(trifluoromethoxy)phenoxy]propanoic Acid] | 6.86 µM | 0.39 µM
5 | O=C(O)CCOc1cc(C(F)(F)F)ccc1C1CC(=O)c2cc(F)cc(Cl)c2O1 (stereo not drawn) [Example 3, 3-[2-(8-chloro-6-fluoro-4-oxo-chroman-2-yl)-5-(trifluoromethyl)phenoxy]propanoic Acid] | 11.2 µM | 5.59 µM
6 | CCS(=O)(=O)N[C@H](COc1cc(C(F)(F)F)ccc1C1CC(=O)c2cccc(Cl)c2O1)C(=O)OC (stereo partly drawn) [Example 27, Methyl (2R)-3-[2-(8-chloro-4-oxo-chroman-2-yl)-5-(trifluoromethyl)phenoxy]-2-(ethylsulfonylamino)propanoate] |  | 0.58 µM
7 | Cc1cc(C2CC(=O)c3cccc(Cl)c3O2)c(OCCC(=O)O)cc1Cl (stereo not drawn) [Example 14, 3-[5-chloro-2-(8-chloro-4-oxo-chroman-2-yl)-4-methyl-phenoxy]propanoic Acid] |  | 1.05 µM
